In patent US20110217300A1, “Quinazolinone Compounds and Methods of Use Thereof” (priority 2007, published 2011) one finds GI50 and IC50 data, which are given here for 13 compounds.

One experiment has as its system A549. Kind of experiment: MTS cell viability assay. The following applies: Homo sapiens, A549 non small cell lung, 72 hours, read-out: MTS NCI A549 GI50. It is filed as cell-based. On the procedure: Two human cancer cell lines were assayed (see, Table 1). Cells were maintained at 37° C. and 5% CO2 in DMEM media (4.5 g/L glucose) supplemented with 10% heat-inactivated FBS, 10 mM L-glutamine, and 10 mM Hepes pH 7.5. Briefly, cells were seeded in 96-well plates as set forth in Table 1 and incubated for 16-24 hours. Candidate compounds were serially diluted in DMSO, further diluted in cell culture media, and then added to cells (final DMSO concentration of 0.33%). Cells were incubated in the presence of candidate compound for 72 hours. […] The Compound Numbers in Table 2 correspond to the numbers listed parenthetically in the Example titles.

The next experiment relates to NCI-H460. Kind of experiment: MTS cell viability assay. Type of experiment: cell-based, human. Conditions: Homo sapiens, NCI-H460, 72 h. As for the experimental part:
Cell viability was determined by measuring the activity of dehydrogenase enzymes in metabolically active cells using a tetrazolium compound, MTS. The assay was performed as described in Promega Technical Bulletin No. 169 (CellTiter 96 Aqueous Non-Radioactive Cell Proliferation Assay). Two human cancer cell lines were assayed (see, Table 1). Cells were maintained at 37° C. and 5% CO2 in DMEM media (4.5 g/L glucose) supplemented with 10% heat-inactivated FBS, 10 mM L-glutamine, and 10 mM Hepes pH 7.5. Briefly, cells were seeded in 96-well plates as set forth in Table 1 and incubated for 16-24 hours. Candidate compounds were serially diluted in DMSO, further diluted in cell culture media, and then added to cells (final DMSO concentration of 0.33%). Cells were incubated in the presence of candidate compound for 72 hours. MTS stock solution (MTS 2 gm/L, PMS […] in PBS) was added to the cells (final concentration MTS […] and PMS 7.67 mg/L) and incubated for 4 hours. SDS was added to a final concentration of 1.4% and absorbance at 490 nm was measured within two hours using a plate reader. […] GI50 values were given in Table 2 for the compounds listed. The Compound Numbers in Table 2 correspond to the numbers listed parenthetically in the Example titles. Where multiple measurements were made by different technicians, both values are given.
Cell viability was determined for N-(3-amino-propyl)-3-chloro-N—[(R)-1-(7-chloro-4-oxo-3-phenylamino-3,4-dihydro-quinazolin-2-yl)-but-3-ynyl]-2-fluoro-benzamide (compound I of Table 2). The cell viability assay of Example 105 was used. GI50 was determined using a variety of cell lines. Cells were plated at 100-5000 cells per well. At least 2 replicates were performed. Where multiple measurements were made by different technicians, both values are given.

The target in another experiment is T1, HsEg5 (Homo sapiens, UniProt P52732).
T1 sequence (P52732 18-359 limits assumed): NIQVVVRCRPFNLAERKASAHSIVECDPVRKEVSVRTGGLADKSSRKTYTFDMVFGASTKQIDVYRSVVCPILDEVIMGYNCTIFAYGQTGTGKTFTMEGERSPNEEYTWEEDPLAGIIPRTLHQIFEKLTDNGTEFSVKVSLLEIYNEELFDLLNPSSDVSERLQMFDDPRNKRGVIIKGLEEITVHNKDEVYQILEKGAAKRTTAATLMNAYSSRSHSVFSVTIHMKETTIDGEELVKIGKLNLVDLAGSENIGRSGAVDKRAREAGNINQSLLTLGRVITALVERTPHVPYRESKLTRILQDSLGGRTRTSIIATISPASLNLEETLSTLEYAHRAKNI
The experiment in a line: Fluorescence detection of HsEg5 ATPase activity (ADP Quest, automated). Type of experiment: biochemical. On the procedure:
Purified HsEg5 motor fragment was activated by mixture with preformed MT polymer (Cytoskeleton, Denver, Colo.) at room temperature for 20 minutes. MT activated ATPase activity was measured using ADP Quest (DiscoverX, Fremont, Calif.) in which a coupled-enzyme assay can translate accumulation of ADP into detectable resorufin signal (FIG. 1A). Fluorescence was measured at λEx=535 nm and λEm=590 nm on a Wallac Victor 2 plate reader (Perkin-Elmer Life Sciences, Boston, Mass.). Reagent A and B from ADP Quest kit were aliquoted and frozen in −20° C. before use. A standard curve was determined using the provided ADP reagent in the reaction buffer that consisted of 50 mM Pipes (pH7.0), 5.0 mM MgCl2, 20 μM paclitaxel and […]. The same buffer was used for Km determination with HsEg5 concentration of 10 nM.
For inhibitor screening, 4 μL of compounds were incubated with 10 μL of MT-activated HsEg5 such that the final concentrations for compound range from 100 μM to 5 nM (1 to 3 serial dilutions, final concentration) and final concentration for HsEg5 is 10 nM. The mixture was incubated at room temperature for 10 minutes with mild shaking. The screening assay contained 0.3% DMSO in all reaction wells. We used wells containing only DMSO as negative controls and wells without ATP as background. Addition of 6 μL ATP (final concentration of 20 μM) initiated the ATP hydrolysis reaction. The 20 μL-reaction was allowed to proceed at room temperature for 10 minutes before addition of 10 μL of reagent A and 20 μL of reagent B. After 20-minute development at room temperature, the fluorescence was measured and data analysis was performed using GraphPad Prism version 3.0 (GraphPad Software, San Diego, Calif.)
For the purpose of high-throughput screening, we automated the fluorescence assay using a Sciclone ALH3000 (Caliper Life Sciences, Hopkinton, Mass.) and Multidrop 384 (Thermo Electron Corp, Waltham, Mass.). First, compound dilution plates for screening (at 10 μM or 1 μM) and ICso determination (10 data points from 100 μM to 5 nM) were made in Corning polypropylene V-bottom 96-well plates. In both cases, the 1st and 7th column contained background (No ATP addition) and negative control (DMSO only). For screening compounds at 10 μM or 1 μM, […] of each compound at 50 μM or 5 μM were used in a 20 μL assay reaction. For IC50 determination, the mother compound plate contained 24 μL of tested compound at stock concentration of 30 mM. 6 μL of each test compound in 30 mM was added to each well in the column 2 and followed by 1:3 serial dilutions in DMSO with the Sciclone ALH3000. 234 μL of assay buffer was then added using a Multidrop 384. Then 4 μL of diluted compounds was used in 20 μL-reaction. The final concentration was a 1:300 dilution of the original stock. Second, a reagent source plate was prepared with three rows designated to MT-activated HsEg5, Reagent A and Reagent B respectively. MTs were diluted with assay buffer and polymerized at room temperature for 10 minutes. Just before use, HsEg5 protein was thawed on ice and activated by addition of MT polymers at room temperature for 20 minutes. HsEg5/MT was then added to Row A of the reagent source plate. The final assay concentration was 10 nM HsEg5 and 500 nM MTs. Reagent A and B were stored at −20° C. and thawed at room temperature followed by transferring to rows B & C of the reagent source plate. Third, ATP substrate plate was prepared by transferring 80 μM ATP solution to each well of a V-shape 96-well plate except the wells in the first row where assay buffer was added instead to have no-ATP blanks. The final concentration for ATP in the assay was 20 μM.
The assay was programmed on Sciclone ALH3000 with the following procedures: 1) Addition of 4 μL compounds to the assay plate, followed by addition of 10 μL of MT-activated HsEg5. […]

Where [1] appears, read: read-out: MTS NCI H460 GI50, NCI-H460 non small cell lung, 72 hours.

Like-named read-outs stand apart in the source and are kept apart here.

For the compound `CC[C@H](c1nc2cc(Cl)ccc2c(=O)n1Nc1ccccc1)N(CCCN)Cc1ccc(C)cc1` [Compound 68, 2-{(R)-1-[(3-Amino-propyl)-(4-methyl-benzyl)-amino]-propyl}-7-chloro-3-phenylamino-3H-quinazolin-4-one], the concentration for 50% growth inhibition (GI50) in the experiment with A549 (A549, 72 h) was found to be 3.86 µM; with NCI-H460 (setting [1]), 2.59 µM.

The compound `CCC(c1nc2cc(Cl)ccc2c(=O)n1Nc1ccccc1)N(CCCN)C(=O)c1ccc(F)c(Cl)c1F` (stereo not shown) [Compound 20, N-(3-Aminopropyl)-N-[1-(3-anilino-7-chloro-4-oxo-3,4-dihydroquinazolin-2-yl)propyl]-3-chloro-2,4-difluorobenzamide] had an IC50 against HsEg5 of 0.844 µM. Also, the GI50 with A549 was found to be 1.8 µM; in the experiment on NCI-H460 (read-out: MTS NCI H460 GI50), 1 µM.

Consider `CCC(c1nc2cc(Cl)ccc2c(=O)n1Nc1ccccc1)N(CCCN)C(=O)c1ccc(F)cc1` (stereo not shown) [Compound 8, N-(3-Aminopropyl)-N-[1-(3-anilino-7-chloro-4-oxo-3,4-dihydroquinazolin-2-yl)propyl]-4-fluorobenzamide], for which the IC50 against HsEg5 came to 2.13 µM. The GI50 in the experiment with A549 (A549, 72 h) amounted to 4.75 µM; in the experiment with NCI-H460 (setting [1]), 2.83 µM.

For `CC[C@H](c1nc2cc(Cl)ccc2c(=O)n1Nc1ccccc1)N(CCCN)Cc1ccc(F)c(C)c1` [Compound 69, 2-{(1R)-1-[(3-Aminopropyl)(4-fluoro-3-methylbenzyl)amino]propyl}-3-anilino-7-chloro-3H-quinazolin-4-one], the concentration for 50% growth inhibition (GI50) with A549 (A549, 72 h) is 3.9 µM; with NCI-H460 (setting [1]), 3.77 µM.

`CC[C@H](c1nc2cc(Cl)ccc2c(=O)n1Nc1ccccc1)N(CCCN)S(=O)(=O)c1cccc(F)c1` [Compound 31, N-(3-Aminopropyl)-N-[(1R)-1-(3-anilino-7-chloro-4-oxo-3,4-dihydroquinazolin-2-yl)propyl]-3-fluorobenzenesulfonamide] returned an IC50 on HsEg5 of 1.43 µM. Besides, the 50% growth inhibitory concentration (GI50) in the experiment with A549 came to 10.8 µM.

The compound `CC[C@H](c1nc2cc(Cl)ccc2c(=O)n1Nc1ccccc1)N(CCCN)S(=O)(=O)c1c(C)nn(C)c1C` [Compound 33, N-(3-Aminopropyl)-N-[(1R)-1-(3-anilino-7-chloro-4-oxo-3,4-dihydroquinazolin-2-yl)propyl]-1,3,5-trimethyl-1H-pyrazole-4-sulfonamide] had an IC50 on HsEg5 of 4.22 µM. Also, the GI50 in the experiment with NCI-H460 (read-out: MTS NCI H460 GI50) worked out at 10.4 µM.

Regarding `C#CC[C@H](c1nc2cc(Cl)ccc2c(=O)n1Nc1ccccc1)N(CCCN)Cc1ccc(C)cc1` [Compound 66, 2-{(R)-1-[(3-Amino-propyl)-(4-methyl-benzyl)-amino]-but-3-ynyl}-7-chloro-3-phenylamino-3H-quinazolin-4-one], the GI50 worked out at 2.35 µM in the experiment on A549 (A549, 72 h) and 3.2 µM in the experiment with NCI-H460 (setting [1]).

Consider `CC[C@H](c1nc2cc(Cl)ccc2c(=O)n1Nc1ccccc1)N(CCCN)Cc1ccccc1` [Compound 70, 2-{(1R)-1-[(3-aminopropyl)(benzyl)amino]propyl}-3-anilino-7-chloro-3H-quinazolin-4-one], for which the 50% growth inhibitory concentration (GI50) in the experiment on A549 (A549, 72 h) was found to be 6.91 µM; with NCI-H460 (setting [1]), 4.23 µM.

Compound `CSCCC(c1nc2cc(Cl)ccc2c(=O)n1Nc1ccccc1)N(CCCN)C(=O)c1cccc(Cl)c1F` (stereo not shown) [Compound 38, N-(3-Aminopropyl)-N-[1-(3-anilino-7-chloro-4-oxo-3,4-dihydroquinazolin-2-yl)-3-(methylthio)propyl]-3-chloro-2-fluorobenzamide] gave a 50% inhibitory concentration (IC50) against HsEg5 of 4.59 µM. In the experiment with NCI-H460 (setting [1]), the 50% growth inhibitory concentration (GI50) turned out to be 3.59 µM.

`CCCCC(c1nc2cc(Cl)ccc2c(=O)n1Nc1ccccc1)N(CCCN)C(=O)c1ccc(C)cc1` (stereo not shown) [Compound 59, N-(3-Aminopropyl)-N-[1-(3-anilino-7-chloro-4-oxo-3,4-dihydroquinazolin-2-yl)pentyl]-4-methylbenzamide]: the IC50 on HsEg5 amounted to 52.3 µM. Further, in the experiment on NCI-H460 (read-out: MTS NCI H460 GI50), the GI50 came to 4.24 µM.

Regarding `Cc1ccc(C(=O)N(CCCN)C(c2nc3cc(Cl)ccc3c(=O)n2Nc2ccccc2)C(C)C)cc1F` (stereo not shown) [Compound 46, N-(3-Aminopropyl)-N-[1-(3-anilino-7-chloro-4-oxo-3,4-dihydroquinazolin-2-yl)-2-methylpropyl]-3-fluoro-4-methylbenzamide], on HsEg5, half-maximal inhibition (IC50) required 0.246 µM. Further, the GI50 in the experiment on NCI-H460 (setting [1]) was 0.678 µM.

For `C#CC[C@H](c1nc2cc(Cl)ccc2c(=O)n1Nc1ccccc1)N(CCCN)S(=O)(=O)c1ccc(C)cc1` [Compound 30, N-(3-amino-propyl)-N—[(R)-1-(7-chloro-4-oxo-3-phenylamino-3,4-dihydro-quinazolin-2-yl)-but-3-ynyl]-4-methyl-benzenesulfonamide], the GI50 with A549 (A549, 72 h) was found to be 7.1 µM; with NCI-H460 (setting [1]), 12 µM.

On HsEg5, `CCC(c1nc2cc(Cl)ccc2c(=O)n1Nc1ccccc1)N(CCN)C(=O)c1ccc(Cl)cc1` (stereo not shown) [Compound 60, N-(2-Aminoethyl)-N-[1-(3-anilino-7-chloro-4-oxo-3,4-dihydroquinazolin-2-yl)propyl]-4-chlorobenzamide] returned a half-inhibitory concentration (IC50) of 3.99 µM. The GI50 in the experiment with NCI-H460 (read-out: MTS NCI H460 GI50) turned out to be 10 µM.
